Experimental data as given in US6428812B1, “Process for producing granules containing angiotensin-converting enzyme inhibiting peptides” (Calpis Co., Ltd., priority 1999, dated 2002).

Target: angiotensin-converting enzyme (ACE) (Homo sapiens, UniProt P12821)
Experiment: ACE inhibitory activity
Type: biochemical
Settings: ratio IPP versus VPP

Sequence of angiotensin-converting enzyme (ACE) (P12821 30-1306, species assumed): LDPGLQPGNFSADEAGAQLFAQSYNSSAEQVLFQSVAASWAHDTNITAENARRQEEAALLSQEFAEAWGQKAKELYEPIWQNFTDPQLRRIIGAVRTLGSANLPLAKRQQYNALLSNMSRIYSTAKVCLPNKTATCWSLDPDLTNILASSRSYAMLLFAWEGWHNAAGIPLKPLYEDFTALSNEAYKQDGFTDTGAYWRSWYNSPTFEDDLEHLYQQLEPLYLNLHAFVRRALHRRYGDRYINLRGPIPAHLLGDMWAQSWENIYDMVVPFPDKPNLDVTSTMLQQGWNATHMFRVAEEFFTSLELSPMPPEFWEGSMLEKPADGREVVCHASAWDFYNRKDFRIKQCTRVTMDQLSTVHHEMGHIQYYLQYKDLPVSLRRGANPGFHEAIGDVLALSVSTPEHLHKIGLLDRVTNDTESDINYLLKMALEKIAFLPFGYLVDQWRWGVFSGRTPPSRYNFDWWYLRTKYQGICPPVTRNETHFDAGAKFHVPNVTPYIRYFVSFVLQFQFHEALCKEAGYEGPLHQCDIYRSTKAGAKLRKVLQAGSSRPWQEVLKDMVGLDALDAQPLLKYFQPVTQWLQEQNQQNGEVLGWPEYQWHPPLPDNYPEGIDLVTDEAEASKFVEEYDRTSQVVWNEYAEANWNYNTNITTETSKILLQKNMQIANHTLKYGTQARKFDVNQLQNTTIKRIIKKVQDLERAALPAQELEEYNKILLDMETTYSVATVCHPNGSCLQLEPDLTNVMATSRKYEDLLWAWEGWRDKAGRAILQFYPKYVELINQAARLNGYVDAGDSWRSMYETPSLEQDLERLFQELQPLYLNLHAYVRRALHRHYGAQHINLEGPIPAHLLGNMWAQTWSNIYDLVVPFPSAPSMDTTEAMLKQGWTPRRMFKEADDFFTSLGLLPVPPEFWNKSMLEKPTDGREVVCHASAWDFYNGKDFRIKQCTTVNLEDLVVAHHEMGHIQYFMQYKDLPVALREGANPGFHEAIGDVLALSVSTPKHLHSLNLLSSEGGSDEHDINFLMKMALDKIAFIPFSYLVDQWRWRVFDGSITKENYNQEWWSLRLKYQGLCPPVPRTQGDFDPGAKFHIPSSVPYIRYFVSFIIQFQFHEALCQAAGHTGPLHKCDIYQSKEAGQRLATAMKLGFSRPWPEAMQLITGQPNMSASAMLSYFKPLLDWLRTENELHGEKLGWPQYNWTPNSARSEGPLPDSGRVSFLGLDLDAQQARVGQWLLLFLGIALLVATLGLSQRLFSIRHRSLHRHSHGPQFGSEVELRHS

ACEI activity of IPP relative to VPP: 1.7 times
Substance: Ile-Pro-Pro [IPP]
